# Reference: US7442714B2, “Amlodipine gentisate and a method of its preparation” (SK Chemicals Co., Ltd., priority 2003, dated 2008)
# Where a name gives a salt, the structure may show the parent alone.
# Legend:
# rat = details: oral; cited from earlier work
# wild bird = details: oral; cited from earlier work
# [1] = Test for stability: HPLC content of active ingredient after storage at temperature and humidity; type: physicochemical
# Description: This experiment is designed to confirm the stability of amlodipine salt. It is essential for a drug to have sufficient stability in order to be formulated into a specific form of preparation. In particular, it is especially important to have an atmospheric stability for a drug to be formulated into tablets or capsules while aqueous stability is more important when a drug is formulated into an injection type of preparation.
# [2] = system: Rats with congenital hypertension (SHR); test: Anti-hypertension activity, tail-cuff method; type: in vivo, rat; details: oral
# Method: Rats with congenital hypertension (SHR, male, 13-14 weeks old) were purchased from Charles River Co. (Japan). […] SHR were used those having systolic blood pressure of 170 mmHg or higher and each experimental group was composed of 8 rats. Blood pressure was measured using Multichannel 8000 (TSE Co., Germany) according to the tail-cuff method. […] […] The result of measurements was indicated in S.E.M. Statistical analysis of the measurements was performed by using Sigma Stat program (Jandel Co., USA) with respect to unpaired t-test and one-way analysis of variance (ANOVA) and the second evaluation was performed via Dunnett multiple comparisons test.
# Light stability (UV) = type: physicochemical
# Description: Table 4 represents the result of light stability of amlodipine gentisate salts of the present invention compared to that of amlodipine besylate and the total amount of UV light was 200 W·h/m^2.
# [3] = Sprague-Dawley (printed: Sprague Dowry), rat, in vivo, po, 10 mg/kg
# Method: The blood samples were centrifuged for 2 min at 14,000 rpm to obtain blood plasma. 80 μL of the blood plasma was mixed with 240 μL of methanol and vortexed for 10 sec and centrifuged again for 2 min at 14,000 rpm.
# [4] = UV, total amount of UV light 200 W·h/m^2
Structure (SMILES),LD50 (rat) [µL/kg],LD50 (wild bird) [mg/kg],Content of active ingredients at 40° C. with 75% humidity ([1]; 2 weeks) [%],Content of active ingredients at 60° C. with 75% humidity ([1]; 2 weeks) [%],Content of active ingredients at 40° C. with 75% humidity ([1]; 4 weeks) [%],Content of active ingredients at 60° C. with 75% humidity ([1]; 4 weeks) [%],Content of active ingredients at 40° C. with 75% humidity ([1]; 8 weeks) [%],Content of active ingredients at 60° C. with 75% humidity ([1]; 8 weeks) [%],Content of active ingredients at 40° C. with 75% humidity ([1]; initial) [%],Content of active ingredients at 60° C. with 75% humidity ([1]; initial) [%],Time after administration at which a significant decrease in blood pressure started [2] [min],Time after administration at which the decrease in blood pressure reached the peak [2] [h],Time after administration until which the anti-hypertension effect was significant [2] [h],Decrease in Blood Pressure (maximum anti-hypertension effect) ([2]; 2.5 mg/kg) [%],Decrease in Blood Pressure (maximum anti-hypertension effect) ([2]; 5.0 mg/kg) [%],Content of active ingredients (Light stability (UV); [4]) [%],Content of active ingredients (Light stability (UV); initial) [%],Decrease in Blood Pressure (maximum anti-hypertension effect) ([2]; 1.25 mg/kg) [%],Period of highest concentration in blood after administration [3] [h],Light stability compared to conventional amlodipine besylate salts (Light stability (UV); under UV or visible light)
"O=S(=O)(O)c1ccccc1 [Benzenesulfonic acid, benzenesulfonic acid]",890,75,,,,,,,,,,,,,,,,,,
CCOC(=O)C1=C(COCCN)NC(C)=C(C(=O)OC)C1c1ccccc1Cl.O=S(=O)(O)c1ccccc1 (racemic) [(±)-amlodipine besylate],,,99.9,98.7,99.8,97.4,99.2,98.1,100,100,30,1,6,20.8±7.3,28.6±7.5,88.3,100,,,
"CCOC(=O)C1=C(COCCN)NC(C)=C(C(=O)OC)[C@@H]1c1ccccc1Cl [S-(−)-amlodipine gentisate, (S)-(−)-Amlodipine Gentisate Salt]",,,102.9,100.1,103.5,103.0,102.3,99.9,100,100,30,1,6,24.5±7.9,,100.7,100,19.8±5.5,4 to 6,superior light stability
CCOC(=O)C1=C(COCCN)NC(C)=C(C(=O)OC)[C@@H]1c1ccccc1Cl.O=S(=O)(O)c1ccccc1 [S-(−)-amlodipine besylate],,,101.1,100.1,101.7,98.5,101.6,96.3,100,100,,,,,,90.1,100,,,
